Reference: PMC9506044, “Identification of Protosappanoside D from Caesalpinia decapetala and Evaluation of Its Pharmacokinetic, Metabolism and Pharmacological Activity” (Molecules, 2022)
Entries after “also recorded” stand apart in the source; their conditions may differ. Where two headings read alike, the source gives them in different places.

Tests used:
[1] = Metabolites identification in rat plasma (UHPLC/Q Exactive Plus MS); format: in vivo, Sprague-Dawley rats; settings: PTD 27.3 mg/kg by gavage twice daily for 3 d, 2 h after last administration
Method: To investigate the PTD metabolites, Sprague-Dawley rats were randomly divided into two groups with six rats in each group. PTD was continuously administered by gavage twice daily for 3 d at a dose of 27.3 mg/kg. Blood was collected from the rat femoral artery 2 h after the last administration, centrifuged at 6000 rpm at 4 °C for 6 min, and 100 μL of plasma was separated and frozen at −20 °C until analysis.
Qualitative analysis of metabolites was conducted on a Vanquish horizon (Thermo Scientific, Waltham, MA, USA) and combined with a Q Exactive Plus Orbitrap MS (QE Plus, Thermo Scientific, USA) system. The separation of PTD and its metabolites was achieved on a Hypersil gold column (2.1 × 150 mm, i.d., 1.9 μm). The mobile phase consisted of water containing 0.1% formic acid (B) and acetonitrile containing 0.1% formic acid (A). The gradient elution program was set as follows: 0–2 min, 5% A; 2–3 min, 5~25% A; 3–6 min, 25~40% A; 6–13 min, 40~95% A; 13–14 min, 95~95% A; 14–15 min, 95~5% A; 15–18 min, 5~5% A; flow rate, 0.3 mL/min. The MS unit parameters were set as follows: the range of data acquisition was 150–1000 m/z, electrospray voltage was 2.5 kV(−), 3.5 kV(+), solvent removal gas flow rate was 8 L/min, and desolvent gas temperature was 320 °C. Acquisition and processing were conducted using the Xcalibur 4.2 software (Thermo Fisher Scientific, USA) and Compound Discoverer 3.2 (Thermo, USA).
A 600 μL aliquot of each plasma sample was transferred into a 5 mL centrifuge tube, 300 μL of 2% formic acid solution and 2.4 mL of methanol was added before vortexing for 2 min. This was followed by sonication in an ultrasonic machine for 10 min, and centrifugation at 13,225× g for 10 min. The supernatant was then placed in a centrifuge tube and evaporated to dryness under a stream of nitrogen at 37 °C. The residues were dissolved in 200 μL of 50% methanol and centrifuged at 13,225× g for 10 min, and 1 μL of the solution was injected into the QE system.

RAW264.7 cells = experiment: MTS cell viability assay on RAW264.7 cells; format: cell-based; settings: 24 h treatment
Method: (§1) RAW264.7 cells, obtained from American Type Culture Collection (ATCC, Manassas, VA, USA), were cultured in Dulbecco’s modified Eagle’s medium (DMEM) (Life Technologies, Grand Island, NY, USA) supplemented with 10% fetal bovine serum (FBS) and 1% penicillin-streptomycin (Grand Island, NY, USA). The cultures were incubated at 37 °C in a humidified atmosphere containing 5% CO2.
Cell viability was determined using the MTS cell viability assay kit. RAW264.7 cells were cultured at a density of 1 × 10^5 cells per well in 96-well plates by the treatment with various concentrations of PTD and PTB, respectively. After 24 h, 5 µL MTS was added to each well and incubated for 3 h. The plates were then read at 490 nm using a microplate reader.

[2] = Stability of the analytes in rat plasma under various storage conditions; format: in vitro ADME
Method: The stability of analytes in rat plasma was assessed using QC samples at low, medium and high concentrations (n = 5 for each concentration level) under three conditions: (1) at room temperature for 24 h; (2) refrigerated at 4 °C for 24 h; and (3) three freeze-thaw cycles.

[3] = Pharmacokinetic study in rats after oral and intravenous administration of PTD (UPLC-MS/MS, plasma); format: in vivo; settings: Sprague-Dawley; for AUC(0-inf) / AUC(0-t) / Cmax / MRT last / MRT inf / half-life / Tmax: rat plasma; for MRT last: read-out: MRT(0–t); for MRT inf: read-out: MRT(0–∞); for half-life: read-out: t1/2z (converted)
Method: Specific pathogen-free Sprague-Dawley rats (230 ± 10 g) were purchased from Changsha Tianqin Biotechnology Co., Ltd. (Changsha, China; certificate no. SCXK (Xiang) 2014-0010). Before starting the experiments, the rats were allowed one week of acclimatization in the animal quarters under air conditioning (25 ± 1 °C) and an automatically controlled photoperiod of 12 h of light daily. They were fed with standard rodent chow and tap water ad libitum. Rats were fasted for 12 h before the start of the experiment but were free to drink water. All experiments were approved by the Animal Ethics Committee of Guizhou Medical University and conducted in accordance with the guidelines of the Committee on the Care and Use of Laboratory Animals in China.
For the pharmacokinetic study, 12 rats were randomly divided into two groups, with 6 rats in each group. In the oral administration group, PTD was intragastrically administered to the rats at a dose of 27.3 mg/kg. For intravenous administration, PTD was injected at a dose of 9.1 mg/kg via the tail vein. Blood samples (0.3 mL) were collected directly from the caudal vein using anticoagulant centrifugal tubes at 0.083, 0.167, 0.33, 0.5, 0.75, 1, 1.5, 2, 4, 6, 9, 12 and 24 h after intravenous and oral administration, respectively. The blood sample was centrifuged at 6000 rpm for 6 min, and the supernatant plasma was transferred into a new clean tube and stored at −80 °C prior to further use.
The UPLC-MS/MS system consisted of an ACQUITY I-Class UPLC system and an XEVO TQ-S triple-quadrupole tandem mass spectrometer (Waters Corp., Milford, MA, USA) equipped with an ESI source. Chromatographic separation was performed using a UPLC BEN C18 column (2.1 × 50 mm, […]; Waters Corp., Milford, MA, USA) at 40 °C. The mobile phase consisted of water containing 0.2% formic acid (B) and acetonitrile containing 0.2% formic acid (A) delivered at 0.3 mL/min as a gradient as follows: 0–0.5 min, 10% A; 0.5–3 min, 90% A; 3–4 min, 90% A; 4–4.5 min, 10% A; 4.5–5 min, 10% A. Waters XEVO TQ-S triple-quadrupole mass spectrometer equipped with an ESI source was used for the mass analysis and detection. The main working parameters were set as follows: source temperature, 120 °C; desolvation temperature, 350 °C; and nebuliser gas (N2), 650 L/h. The scan time for all analytes was set at 0.2 s and acquisition and processing were conducted on a Micromass Masslynx4.1.
A 100 μL aliquot of each plasma sample was transferred into a 1.5 mL centrifuge tube, and 50 μL of 2% formic acid solution was added before vortexing for 30 s. Subsequently, the internal standard (IS) (50 μL of 20 ng/mL puerarin) and 400 μL of methanol were added and vortexed for 1 min. For subsequent treatment methods were the same as mentioned in the above section (4.7.1); finally, 1 μL of the solution was injected into the UPLC-MS/MS system.
Compound discoverer 3.2 was used for the analysis of metabolites of PTD; WinNonlin was used for the analysis of pharmacokinetic parameters, and Graphpad 8.2 was used for the illustrations. Data are expressed as mean ± SD. Statistical analysis was performed using the Statistical Product and Service Solutions software package (SPSS 22.0, SPSS Inc., Chicago, IL, USA). The results were analyzed using one-way ANOVA and bioavailability (F) was calculated according to the equation reported in He et al..

[4] = system: LPS-stimulated RAW264.7 cells; experiment: Secretion of TNF-α, IL-1β and IL-6 by LPS-induced RAW264.7 cells (ELISA); format: cell-based; settings: 200 μmol/L, LPS 1 μg/mL, 24 h, compared to the model group
Method: as §1
RAW264.7 cells (1 × 10^5 cells/well in a 96-well plate) were treated with PTD, PTB (200 μmol/L) and stimulated by LPS (1 μg/mL) for 24 h. As a positive control, the impacts of Dex on LPS-induced RAW264.7 cells were also determined parallelly. The supernatants were then collected, and the accumulated NO level was determined using Griess reagent. The concentrations of TNF-α, IL-6 and IL-1β in conditioned media were measured using enzyme-linked immunosorbent assay (ELISA) according to the supplier’s instructions.

[5] = po, intragastric administration of PTD 27.3 mg/kg
[6] = rat, plasma, po, 27.3 mg/kg, intragastric administration of PTD 27.3 mg/kg
[7] = intravenous administration of PTD 9.1 mg/kg

Row | SMILES | Identification (metabolic pathway from PTD) [1] | concentration with no cytotoxicity to RAW264.7 cells (RAW264.7 cells) | AUC(0-inf) [3, 5] | AUC(0-t) [3, 5] | Cmax [3, 5] | MRT last [3, 5] | MRT inf [3, 5] | half-life [3, 5] | Tmax [3, 6] | AUC(0-inf) [3, 7] | AUC(0-t) [3, 7] | MRT last [3, 7] | MRT inf [3, 7] | half-life [3, 7] | secretion of IL-1β [4] | secretion of IL-6 [4] | secretion of TNF-α [4] | also measured
1 | COc1ccc2c(c1)OC(CO)=Cc1cc(O)c(O)cc1-2 [M2] | Dealkylation, Dehydration |  |  |  |  |  |  |  |  |  |  |  |  |  |  |  |  | 
2 | COC1(C(=O)O)COc2cc(O[C@@H]3O[C@H](CO)[C@@H](O)[C@H](O)[C@H]3O)ccc2-c2cc(O)c(O)cc2C1 (stereo partly shown) [M4] | Desaturation, Oxidation, Methylation |  |  |  |  |  |  |  |  |  |  |  |  |  |  |  |  | 
3 | OCC1OC(Oc2ccc3c(c2)OCC(O)(CO)Cc2cc(O)c(O)cc2-3)C(O)C(O)C1O [PTD, protosappanin B-3-O-β-D-glucoside] |  | below 200 μmol/L | 405 ± 224 ng·h/mL | 382 ± 211 ng·h/mL | 250 ± 176 ng/mL | 3.06 ± 0.63 h | 4.15 ± 1.09 h | 3.47 ± 0.78 h | ~0.49 h | 19700 ng·h/mL | 19400 ng·h/mL | 1.8 ± 0.5 h | 2.4 ± 0.83 h | 3.65 ± 1.26 h | downregulate; also recorded: significantly reduced; also recorded: significantly downregulated | downregulate; also recorded: significantly reduced; also recorded: significantly downregulated | downregulate; also recorded: significantly reduced; also recorded: significantly downregulated | Measured Concentration (Mean ± SD) ([2]; 4 °C for 24 h, nominal 5.01 ng/mL): 4.96 ± 0.65 ng/mL; Measured Concentration (Mean ± SD) ([2]; 4 °C for 24 h, nominal 250.5 ng/mL): 236.32 ± 13.98 ng/mL; Measured Concentration (Mean ± SD) ([2]; 4 °C for 24 h, nominal 15,030 ng/mL): 15,122.74 ± 959.18 ng/mL; Measured Concentration (Mean ± SD) ([2]; Room temperature for 24 h, nominal 5.01 ng/mL): 5.61 ± 0.32 ng/mL; Measured Concentration (Mean ± SD) ([2]; Room temperature for 24 h, nominal 250.5 ng/mL): 241.97 ± 8.73 ng/mL; Measured Concentration (Mean ± SD) ([2]; Room temperature for 24 h, nominal 15,030 ng/mL): 15,135.44 ± 1324.59 ng/mL; Measured Concentration (Mean ± SD) ([2]; three freeze-thaw cycles, nominal 5.01 ng/mL): 5.23 ± 0.58 ng/mL; Measured Concentration (Mean ± SD) ([2]; three freeze-thaw cycles, nominal 250.5 ng/mL): 260.48 ± 17.36 ng/mL; Measured Concentration (Mean ± SD) ([2]; three freeze-thaw cycles, nominal 15,030 ng/mL): 14,844.73 ± 346.61 ng/mL; bioavailability ([3]; rat, plasma, oral, 27.3 mg/kg, rat, oral 27.3 mg/kg vs intravenous 9.1 mg/kg): 0.65%
4 | OCC1(O)COc2cc(O)ccc2-c2cc(O)c(O)cc2C1 (stereo not shown) [PTB, protosappanin B, reference compound] | desugarization | below 300 μmol/L | 204 ± 43.9 ng·h/mL | 179 ± 45 ng·h/mL | 31.1 ± 10.5 ng/mL | 7.41 ± 0.77 h | 11.1 ± 2.32 h | 7.79 ± 1.59 h | 1.42 ± 0.49 h | 230 ± 71.9 ng·h/mL | 202 ± 59.5 ng·h/mL | 6.45 ± 2.15 h | 10.5 ± 3.88 h | 6.78 ± 2.69 h | significantly reduced; also recorded: significantly downregulated | significantly reduced; also recorded: significantly downregulated | significantly reduced; also recorded: significantly downregulated | Measured Concentration (Mean ± SD) ([2]; 4 °C for 24 h, nominal 2.51 ng/mL): 2.32 ± 0.11 ng/mL; Measured Concentration (Mean ± SD) ([2]; 4 °C for 24 h, nominal 20.08 ng/mL): 24.62 ± 1.12 ng/mL; Measured Concentration (Mean ± SD) ([2]; 4 °C for 24 h, nominal 251 ng/mL): 223.94 ± 15.73 ng/mL; Measured Concentration (Mean ± SD) ([2]; Room temperature for 24 h, nominal 2.51 ng/mL): 2.17 ± 0.13 ng/mL; Measured Concentration (Mean ± SD) ([2]; Room temperature for 24 h, nominal 20.08 ng/mL): 21.81 ± 1.46 ng/mL; Measured Concentration (Mean ± SD) ([2]; Room temperature for 24 h, nominal 251 ng/mL): 244.31 ± 8.62 ng/mL; Measured Concentration (Mean ± SD) ([2]; three freeze-thaw cycles, nominal 2.51 ng/mL): 2.68 ± 0.03 ng/mL; Measured Concentration (Mean ± SD) ([2]; three freeze-thaw cycles, nominal 20.08 ng/mL): 19.43 ± 1.08 ng/mL; Measured Concentration (Mean ± SD) ([2]; three freeze-thaw cycles, nominal 251 ng/mL): 259.84 ± 23.13 ng/mL
5 | COC1=CC=C(c2cc(O)c(O)cc2C#CC=O)C(=O)C1 [M3] | Dealkylation, Dehydration, Desaturation |  |  |  |  |  |  |  |  |  |  |  |  |  |  |  |  | 
